Consider two compounds from PubChem BioAssay AID1259407 (Chemical Carcinogenesis Research Information System (CCRIS), 2018).

Activity calls are given as the source filed them. The rule behind the calls is not given here.

For the data set, the system named is CCRIS mutagenicity, Ames/micronucleus/aberration tests. Nature of the data set: CCRIS mutagenicity studies. The note with it: Test System: AMES SALMONELLA TYPHIMURIUM

As to `CCCCCCCCOc1ccc(C(=O)O)cc1`, the mutagenic call by setting is: (Strain/Indicator: TA97, Metabolic Activation: HAMSTER, LIVER, S-9, AROCLOR 1254 (10%), Method: PREINCUBATION) “inactive; negative”; (Strain/Indicator: TA97, Metabolic Activation: HAMSTER, LIVER, S-9, AROCLOR 1254 (30%), Method: PREINCUBATION) “inactive; negative”; (Strain/Indicator: TA97, Metabolic Activation: NONE, Method: PREINCUBATION) “inactive; negative”; (Strain/Indicator: TA97, Metabolic Activation: RAT, LIVER, S-9, AROCLOR 1254 (10%), Method: PREINCUBATION) “inactive; negative”; (Strain/Indicator: TA97, Metabolic Activation: RAT, LIVER, S-9, AROCLOR 1254 (30%), Method: PREINCUBATION) “inactive; negative”; (Strain/Indicator: TA98, Metabolic Activation: HAMSTER, LIVER, S-9, AROCLOR 1254 (10%), Method: PREINCUBATION) “inactive; negative”. Besides, the mutagenic call is, setting by setting: (Strain/Indicator: TA98, Metabolic Activation: HAMSTER, LIVER, S-9, AROCLOR 1254 (30%), Method: PREINCUBATION) “inactive; negative”; (Strain/Indicator: TA98, Metabolic Activation: NONE, Method: PREINCUBATION) “inactive; negative”; (Strain/Indicator: TA98, Metabolic Activation: RAT, LIVER, S-9, AROCLOR 1254 (10%), Method: PREINCUBATION) “inactive; negative”; (Strain/Indicator: TA98, Metabolic Activation: RAT, LIVER, S-9, AROCLOR 1254 (30%), Method: PREINCUBATION) “inactive; negative”; (Strain/Indicator: TA100, Metabolic Activation: HAMSTER, LIVER, S-9, AROCLOR 1254 (10%), Method: PREINCUBATION) “inactive; negative”; (Strain/Indicator: TA100, Metabolic Activation: HAMSTER, LIVER, S-9, AROCLOR 1254 (30%), Method: PREINCUBATION) “inactive; negative”. Besides, the mutagenic call is “inactive; negative” (Strain/Indicator: TA100, Metabolic Activation: NONE, Method: PREINCUBATION); “inactive; negative” (Strain/Indicator: TA100, Metabolic Activation: RAT, LIVER, S-9, AROCLOR 1254 (10%), Method: PREINCUBATION); “inactive; negative” (Strain/Indicator: TA100, Metabolic Activation: RAT, LIVER, S-9, AROCLOR 1254 (30%), Method: PREINCUBATION); “inactive; negative” (Strain/Indicator: TA1535, Metabolic Activation: HAMSTER, LIVER, S-9, AROCLOR 1254 (10%), Method: PREINCUBATION); “inactive; negative” (Strain/Indicator: TA1535, Metabolic Activation: HAMSTER, LIVER, S-9, AROCLOR 1254 (30%), Method: PREINCUBATION); “inactive; negative” (Strain/Indicator: TA1535, Metabolic Activation: NONE, Method: PREINCUBATION). The mutagenic call reads like this: (Strain/Indicator: TA1535, Metabolic Activation: RAT, LIVER, S-9, AROCLOR 1254 (10%), Method: PREINCUBATION) “inactive; negative”; (Strain/Indicator: TA1535, Metabolic Activation: RAT, LIVER, S-9, AROCLOR 1254 (30%), Method: PREINCUBATION) “inactive; negative”.
With `CC(=O)N(O)c1ccc(Oc2ccccc2)cc1`, the mutagenic call was “active; positive” (Strain/Indicator: TA100, Metabolic Activation: GUINEA PIG, LIVER, S-9, KANECLOR 500, Method: STANDARD PLATE); “inactive; negative” (Strain/Indicator: TA100, Metabolic Activation: NONE, Method: STANDARD PLATE); “active; positive” (Strain/Indicator: TA100, Metabolic Activation: RAT, LIVER, S-9, KANECLOR 500, Method: STANDARD PLATE).
